The source of these data is ChEMBL document CHEMBL4004792, “Monascustin, an Unusual γ-Lactam from Red Yeast Rice” (J Nat Prod, 2017).

Active and inactive are the calls of the source. No cut-off for these calls is given here.

The subject of assay [1] is A2780. In words: Cytotoxicity against human A2780 cells at 10 uM after 24 hrs by MTT assay. The class given is functional, cell-based.
Assay [2] deals with BGC-823. In words: Cytotoxicity against human BGC823 cells at 10 uM after 24 hrs by MTT assay. In kind it is functional, cell-based. For orientation: Formazan colour is commonly taken as a measure of viable cells.
Assay [3] addresses Histone deacetylase 1 (Homo sapiens, UniProt Q13547). In words: Inhibition of human HDAC1 using H3(1-21)K9 after 60 mins by fluorescence assay.
In assay [4] the test system is A549. The assay can be described thus: Cytotoxicity against human A549 cells at 10 uM after 24 hrs by MTT assay. In kind it is functional, cell-based.
For assay [5], the system named is HCT-8. The assay can be described thus: Cytotoxicity against human HCT8 cells at 10 uM after 24 hrs by MTT assay. In kind it is functional, cell-based.
Assay [6] concerns Bel-7402. The assay can be described thus: Cytotoxicity against human Bel7402 cells at 10 uM after 24 hrs by MTT assay. The class given is functional, cell-based.
The test system of assay [7] is Peritoneal macrophage. The assay can be described thus: Inhibition of LPS-stimulated TNFalpha secretion in C57BL6J mouse peritoneal macrophages at 50 uM after 24 hrs. The class given is functional, cell-based.

A word on the IC50: it is the concentration needed to halve the response being measured.

Histone deacetylase 1, sequence (Q13547 whole entry): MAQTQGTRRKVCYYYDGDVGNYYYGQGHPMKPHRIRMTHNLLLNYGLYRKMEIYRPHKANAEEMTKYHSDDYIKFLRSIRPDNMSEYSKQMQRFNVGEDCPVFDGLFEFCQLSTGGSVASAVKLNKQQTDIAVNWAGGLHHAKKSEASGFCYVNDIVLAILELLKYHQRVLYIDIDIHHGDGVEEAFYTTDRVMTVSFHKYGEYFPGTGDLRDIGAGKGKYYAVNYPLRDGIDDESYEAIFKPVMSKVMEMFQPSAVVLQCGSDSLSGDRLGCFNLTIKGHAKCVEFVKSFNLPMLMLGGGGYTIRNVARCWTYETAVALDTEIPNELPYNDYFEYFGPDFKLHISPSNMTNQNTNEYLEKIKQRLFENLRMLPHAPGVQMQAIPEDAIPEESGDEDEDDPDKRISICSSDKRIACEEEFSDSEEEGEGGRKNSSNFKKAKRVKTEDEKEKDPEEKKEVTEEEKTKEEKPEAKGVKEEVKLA

In the case of `CC(C)C[C@@]1(C(N)=O)NC(=O)C[C@]1(C)O`, the result in assay [1], in assay [2], in assay [4], in assay [5] and in assay [6] was inactive. Besides, it took 3.7 µM to reach half-maximal inhibition in assay [3] (IC50). Besides, in assay [7], the inhibition result is “inactive”.
